The molecules below were run against T1, ALK2 (Homo sapiens, UniProt Q04771) (assay: LanthaScreen Eu Kinase Binding Assay, ALK2 inhibition). Conditions: 1 micromolar concentration.
T1 construct: purchased ThermoFisher Scientific (Life Technologies)
T1 sequence (Q04771 21-509): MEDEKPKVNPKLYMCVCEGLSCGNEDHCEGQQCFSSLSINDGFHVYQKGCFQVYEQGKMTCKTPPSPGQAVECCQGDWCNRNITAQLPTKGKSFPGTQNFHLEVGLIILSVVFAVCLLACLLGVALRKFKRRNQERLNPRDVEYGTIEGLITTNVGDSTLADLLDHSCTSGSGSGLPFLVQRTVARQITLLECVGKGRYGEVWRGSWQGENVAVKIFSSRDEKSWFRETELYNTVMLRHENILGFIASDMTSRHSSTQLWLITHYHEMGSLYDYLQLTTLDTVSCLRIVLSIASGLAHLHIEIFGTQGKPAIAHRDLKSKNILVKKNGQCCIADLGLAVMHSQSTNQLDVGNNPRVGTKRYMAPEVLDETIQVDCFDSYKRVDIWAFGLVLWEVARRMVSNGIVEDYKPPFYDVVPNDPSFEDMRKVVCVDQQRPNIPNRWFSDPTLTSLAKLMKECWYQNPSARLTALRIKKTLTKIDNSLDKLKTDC
Method: Biochemical assays to measure the inhibitory effects of the compounds were performed by ThermoFisher Scientific (Life Technologies). ALK2 inhibition was tested using LanthaScreen™ Eu Kinase Binding Assay screening protocol.

Row | inhibition at 1 µM | Compound
1 | > 50% | COc1cc(-n2cnc(Nc3nc(C(C)C)nc4ccc(F)cc34)c2)cc(OC)c1OC [Compound 99a, 6-fluoro-2-isopropyl-N-(1-(3,4,5-trimethoxyphenyl)-1H-imidazol-4-yl)quinazolin-4-amine]
2 | > 50% | COc1cc(-n2cnc(Nc3nc(C(C)CCN(C)C)nc4c3cnn4C(C)C)c2)cc(OC)c1OC (centres unmarked) [Compound 100b, 6-(4-(dimethylamino)butan-2-yl)-1-isopropyl-N-(1-(3,4,5-trimethoxyphenyl)-1H-imidazol-4-yl)-1H-pyrazolo[3,4-d]pyrimidin-4-amine]
3 | > 50% | COc1cc(-n2cnc(Nc3nc(C4CCN(C)C4)nc4c3cnn4C(C)C)c2)cc(OC)c1OC (centres unmarked) [Compound 101b, 1-isopropyl-6-(1-methylpyrrolidin-3-yl)-N-(1-(3,4,5-trimethoxyphenyl)-1H-imidazol-4-yl)-1H-pyrazolo[3,4-d]pyrimidin-4-amine]
4 | > 50% | COc1cc(-n2cnc(Nc3nc(C(C)C)nc4ncccc34)c2)cc(OC)c1OC [Compound 102e, 2-isopropyl-N-(1-(3,4,5-trimethoxyphenyl)-1H-imidazol-4-yl)pyrido[2,3-d]pyrimidin-4-amine]
5 | > 50% | CCOC(=O)CC(C)c1nc(Nc2cn(-c3cc(OC)c(OC)c(OC)c3)cn2)c2cnn(C(C)C)c2n1 (centres unmarked) [Compound 103c, ethyl 3-(1-isopropyl-4-((1-(3,4,5-trimethoxyphenyl)-1H-imidazol-4-yl)amino)-1H-pyrazolo[3,4-d]pyrimidin-6-yl)butanoate]
6 | > 50% | C=Cc1nc(Nc2cn(-c3cc(OC)c(OC)c(OC)c3)cn2)c2cnn(C(C)C)c2n1 [Compound 104a, 1-isopropyl-N-(1-(3,4,5-trimethoxyphenyl)-1H-imidazol-4-yl)-6-vinyl-1H-pyrazolo[3,4-d]pyrimidin-4-amine]
7 | > 50% | COc1cc(-n2cnc(NC3=NC(C(C)C)=NC4C=COC34)c2)cc(OC)c1OC (centres unmarked) [Compound 105a, 2-isopropyl-N-(1-(3,4,5-trimethoxyphenyl)-1H-imidazol-4-yl)-4a,7a-dihydrofuro[3,2-d]pyrimidin-4-amine]
8 | > 50% | COc1cc(-n2cnc(Nc3nc(C(C)CC(=O)O)nc4c3cnn4C(C)C)c2)cc(OC)c1OC (centres unmarked) [Compound 106a, 3-(1-isopropyl-4-((1-(3,4,5-trimethoxyphenyl)-1H-imidazol-4-yl)amino)-1H-pyrazolo[3,4-d]pyrimidin-6-yl)butanoic acid]
9 | > 50% | COc1cc(-n2cnc(Nc3nc(C(C)CC(=O)NC4CC4)nc4c3cnn4C(C)C)c2)cc(OC)c1OC (centres unmarked) [Compound 107a, N-cyclopropyl-3-(1-isopropyl-4-((1-(3,4,5-trimethoxyphenyl)-1H-imidazol-4-yl)amino)-1H-pyrazolo[3,4-d]pyrimidin-6-yl)butanamide]
10 | > 50% | CNC(=O)CC(C)c1nc(Nc2cn(-c3cc(OC)c(OC)c(OC)c3)cn2)c2cnn(C(C)C)c2n1 (centres unmarked) [Compound 108a, 3-(1-isopropyl-4-((1-(3,4,5-trimethoxyphenyl)-1H-imidazol-4-yl)amino)-1H-pyrazolo[3,4-d]pyrimidin-6-yl)-N-methylbutanamide]
11 | < 50% | COc1cc(-n2cnc(Nc3nc(C(C)CC(=O)NCCO)nc4c3cnn4C(C)C)c2)cc(OC)c1OC (centres unmarked) [Compound 109a, N-(2-hydroxyethyl)-3-(1-isopropyl-4-((1-(3,4,5-trimethoxyphenyl)-1H-imidazol-4-yl)amino)-1H-pyrazolo[3,4-d]pyrimidin-6-yl)butanamide]
12 | < 50% | COc1cc(-n2cnc(Nc3cc(C4CC4)nc4c(C(C)C)cnn34)c2)cc(OC)c1OC [Compound 110d, 5-cyclopropyl-3-isopropyl-N-(1-(3,4,5-trimethoxyphenyl)-1H-imidazol-4-yl)pyrazolo[1,5-a]pyrimidin-7-amine]
13 | > 50% | COc1cc(-n2cnc(Nc3nc(C4CC4)nc4c(C(C)C)cnn34)c2)cc(OC)c1OC [Compound 111d, 2-cyclopropyl-8-isopropyl-N-(1-(3,4,5-trimethoxyphenyl)-1H-imidazol-4-yl)pyrazolo[1,5-a][1,3,5]triazin-4-amine]
14 | > 50% | COc1cc(-n2cnc(Nc3nc(C4CC4)nc4c3cnn4C(C)(C)C)c2)cc(OC)c1OC [Compound 112d, 1-(tert-butyl)-6-cyclopropyl-N-(1-(3,4,5-trimethoxyphenyl)-1H-imidazol-4-yl)-1H-pyrazolo[3,4-d]pyrimidin-4-amine]
15 | > 50% | CCn1ncc2c(Nc3cn(-c4cc(OC)c(OC)c(OC)c4)cn3)nc(C3CC3)nc21 [Compound 113d, 6-cyclopropyl-1-ethyl-N-(1-(3,4,5-trimethoxyphenyl)-1H-imidazol-4-yl)-1H-pyrazolo[3,4-d]pyrimidin-4-amine]
16 | > 50% | COc1cc(-n2cnc(Nc3nc(C4CC4)nc4c3cnn4C)c2)cc(OC)c1OC [Compound 114e, 6-cyclopropyl-1-methyl-N-(1-(3,4,5-trimethoxyphenyl)-1H-imidazol-4-yl)-1H-pyrazolo[3,4-d]pyrimidin-4-amine]
17 | > 50% | COc1cc(-n2cnc(Nc3nc(C4CC4)nc4c3CCC4)c2)cc(OC)c1OC [Compound 115b, 2-cyclopropyl-N-(1-(3,4,5-trimethoxyphenyl)-1H-imidazol-4-yl)-6,7-dihydro-5H-cyclopenta[d]pyrimidin-4-amine]
18 | > 50% | COc1cc(-n2cnc(Nc3nc(C4CC4)nc4c3cnn4C3CC3)c2)cc(OC)c1OC [Compound 116d, 1,6-dicyclopropyl-N-(1-(3,4,5-trimethoxyphenyl)-1H-imidazol-4-yl)-1H-pyrazolo[3,4-d]pyrimidin-4-amine]
19 | > 50% | COc1cc(-n2cnc(Nc3nc(C4CC4)nc4c3cnn4CC(C)C)c2)cc(OC)c1OC [Compound 117e, 6-cyclopropyl-1-isobutyl-N-(1-(3,4,5-trimethoxyphenyl)-1H-imidazol-4-yl)-1H-pyrazolo[3,4-d]pyrimidin-4-amine]
20 | > 50% | COc1cc(-n2cnc(Nc3nc(C4CC4)nc4c3cnn4C34CC(C3)C4)c2)cc(OC)c1OC [Compound 118f, 1-(bicyclo[1.1.1]pentan-1-yl)-6-cyclopropyl-N-(1-(3,4,5-trimethoxyphenyl)-1H-imidazol-4-yl)-1H-pyrazolo[3,4-d]pyrimidin-4-amine]
21 | > 50% | COc1cc(-n2cnc(Nc3nc(CC4CC4)nc4c3cnn4C(C)(C)C)c2)cc(OC)c1OC [Compound 119e, 1-(tert-butyl)-6-(cyclopropylmethyl)-N-(1-(3,4,5-trimethoxyphenyl)-1H-imidazol-4-yl)-1H-pyrazolo[3,4-d]pyrimidin-4-amine]
22 | > 50% | COc1cc(-n2cnc(Nc3nc(C4CC4)nc4c3cnn4CC3CC3)c2)cc(OC)c1OC [Compound 120f, 6-cyclopropyl-1-(cyclopropylmethyl)-N-(1-(3,4,5-trimethoxyphenyl)-1H-imidazol-4-yl)-1H-pyrazolo[3,4-d]pyrimidin-4-amine]
23 | > 50% | COc1cc(-n2cnc(Nc3nc(CC4CC4)nc4c3cnn4CC3CC3)c2)cc(OC)c1OC [Compound 121f, 1,6-bis(cyclopropylmethyl)-N-(1-(3,4,5-trimethoxyphenyl)-1H-imidazol-4-yl)-1H-pyrazolo[3,4-d]pyrimidin-4-amine]
24 | > 50% | COc1cc(-n2cnc(Nc3nc(CC4CC4)nc4c3cnn4C3CC3)c2)cc(OC)c1OC [Compound 122e, 1-cyclopropyl-6-(cyclopropylmethyl)-N-(1-(3,4,5-trimethoxyphenyl)-1H-imidazol-4-yl)-1H-pyrazolo[3,4-d]pyrimidin-4-amine]
25 | > 50% | COc1cc(-n2cnc(Nc3nc(CC4CC4)nc4c3cnn4C34CC(C3)C4)c2)cc(OC)c1OC [Compound 123e, 1-(bicyclo[1.1.1]pentan-1-yl)-6-(cyclopropylmethyl)-N-(1-(3,4,5-trimethoxyphenyl)-1H-imidazol-4-yl)-1H-pyrazolo[3,4-d]pyrimidin-4-amine]
26 | > 50% | CCn1ncc2c(Nc3cn(-c4cc(OC)c(OC)c(OC)c4)cn3)nc(CC3CC3)nc21 [Compound 124e, 6-(cyclopropylmethyl)-1-ethyl-N-(1-(3,4,5-trimethoxyphenyl)-1H-imidazol-4-yl)-1H-pyrazolo[3,4-d]pyrimidin-4-amine]
27 | > 50% | COc1cc(-n2cnc(Nc3nc(CC4CC4)nc4c3cnn4C)c2)cc(OC)c1OC [Compound 125e, 6-(cyclopropylmethyl)-1-methyl-N-(1-(3,4,5-trimethoxyphenyl)-1H-imidazol-4-yl)-1H-pyrazolo[3,4-d]pyrimidin-4-amine]
28 | > 50% | COc1cc(-n2cnc(Nc3nc(CC4CC4)nc4c3cnn4CC(C)C)c2)cc(OC)c1OC [Compound 126e, 6-(cyclopropylmethyl)-1-isobutyl-N-(1-(3,4,5-trimethoxyphenyl)-1H-imidazol-4-yl)-1H-pyrazolo[3,4-d]pyrimidin-4-amine]
29 | > 50% | COc1cc(-n2cnc(Nc3nc(CC(C)C)nc4c3CCC4)c2)cc(OC)c1OC [Compound 127b, 2-isobutyl-N-(1-(3,4,5-trimethoxyphenyl)-1H-imidazol-4-yl)-6,7-dihydro-5H-cyclopenta[d]pyrimidin-4-amine]

— patent US20240270750A1, “IMIDAZOLE-CONTAINING INHIBITORS OF ALK2 KINASE” (BioCryst Pharmaceuticals, Inc., priority 2021, published 2024)
